Patent US12077503B2, “Substituted cyclic amides and their use as herbicides” (FMC CORPORATION, priority 2015, dated 2024)

Tests used:
Assay type in all cases: in vivo
[1] = system: barnyardgrass (Echinochloa crus-galli); assay: Test G Pre-Emergence Protocol; conditions: Echinochloa crus-galli, pre-emergence, 312 h, evaluated after 13 days; for pest or weed control at 15.625 g/ha: 15.625 g ai/ha; for pest or weed control at 15.625 g/ha / pest or weed control at 250 g/ha: read-out: Barnyardgrass damage rating (100=total damage to plant; 0=no damage to plant); for pest or weed control at 62.5 g/ha: 62.5 g ai/ha, 100=total damage to plant, 0=no damage to plant, read-out: Barnyardgrass damage rating; for pest or weed control at 250 g/ha: 250 g ai/ha
Method in brief: (§1)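 Spraying took place one day after sowing, at 15.625, 62.5 or 250 g/ha, using an acetone/water (50:50) spray solution containing 0.5% Tween 20. Plants were kept under glasshouse conditions (24/16 °C, 14 h light, 65% humidity, watered twice daily), and injury was rated 0–100 at day 13.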

corn (Zea mays) [2] = assay: Test G Pre-Emergence Protocol; conditions: Zea mays, pre-emergence, 312 h, evaluated after 13 days; for plant injury at 15.625 g/ha: 15.625 g ai/ha; for plant injury at 15.625 g/ha / plant injury at 250 g/ha: read-out: Corn damage rating (100=total damage to plant; 0=no damage to plant); for plant injury at 62.5 g/ha: 62.5 g ai/ha, 100=total damage to plant, 0=no damage to plant, read-out: Corn damage rating; for plant injury at 250 g/ha: 250 g ai/ha
Method in brief: as §1

[3] = system: giant foxtail (Setaria faberi); assay: Test G Pre-Emergence Protocol; conditions: Setaria faberi, pre-emergence, 312 h, evaluated after 13 days; for pest or weed control at 15.625 g/ha: 15.625 g ai/ha; for pest or weed control at 15.625 g/ha / pest or weed control at 250 g/ha: read-out: Foxtail, Giant damage rating (100=total damage to plant; 0=no damage to plant); for pest or weed control at 62.5 g/ha: 62.5 g ai/ha, 100=total damage to plant, 0=no damage to plant, read-out: Foxtail, Giant damage rating; for pest or weed control at 250 g/ha: 250 g ai/ha
Method in brief: as §1

[4] = system: ivy-leaved morning glory (Ipomoea hederacea); assay: Test G Pre-Emergence Protocol; conditions: Ipomoea, pre-emergence, 312 h, evaluated after 13 days; for pest or weed control at 15.625 g/ha: 15.625 g ai/ha; for pest or weed control at 15.625 g/ha / pest or weed control at 250 g/ha: read-out: Morningglory, Ivy-leaved damage rating (100=total damage to plant; 0=no damage to plant); for pest or weed control at 62.5 g/ha: 62.5 g ai/ha, 100=total damage to plant, 0=no damage to plant, read-out: Morningglory, Ivy-leaved damage rating; for pest or weed control at 250 g/ha: 250 g ai/ha
Method in brief: as §1

[5] = system: redroot pigweed (Amaranthus retroflexus); assay: Test G Pre-Emergence Protocol; conditions: Amaranthus retroflexus, pre-emergence, 312 h, evaluated after 13 days; for pest or weed control at 15.625 g/ha: 15.625 g ai/ha; for pest or weed control at 15.625 g/ha / pest or weed control at 250 g/ha: read-out: Pigweed, Redroot damage rating (100=total damage to plant; 0=no damage to plant); for pest or weed control at 62.5 g/ha: 62.5 g ai/ha, 100=total damage to plant, 0=no damage to plant, read-out: Pigweed, Redroot damage rating; for pest or weed control at 250 g/ha: 250 g ai/ha
Method in brief: as §1

[6] = system: velvetleaf (Abutilon theophrasti); assay: Test G Pre-Emergence Protocol; conditions: Abutilon theophrasti, pre-emergence, 312 h, evaluated after 13 days; for pest or weed control at 15.625 g/ha: 15.625 g ai/ha; for pest or weed control at 15.625 g/ha / pest or weed control at 250 g/ha: read-out: Velvetleaf damage rating (100=total damage to plant; 0=no damage to plant); for pest or weed control at 62.5 g/ha: 62.5 g ai/ha, 100=total damage to plant, 0=no damage to plant, read-out: Velvetleaf damage rating; for pest or weed control at 250 g/ha: 250 g ai/ha
Method in brief: as §1

[7] = system: barnyardgrass (Echinochloa crus-galli); assay: Test G Post-Emergence Protocol; conditions: Echinochloa crus-galli, post-emergence, 312 h, read-out: Barnyardgrass damage rating; for pest or weed control at 15.625 g/ha: 15.625 g ai/ha, evaluated after 13 days (100=total damage to plant; 0=no damage to plant); for pest or weed control at 62.5 g/ha: 62.5 g ai/ha; for pest or weed control at 62.5 g/ha / pest or weed control at 250 g/ha: evaluated after 13 days, 100=total damage to plant, 0=no damage to plant; for pest or weed control at 250 g/ha: 250 g ai/ha
Method in brief: (§2)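 Eight days post-sowing, plants received a spray of test compound (acetone/water 50:50, 0.5% Tween 20) at 15.625, 62.5 or 250 g/ha. Glasshouse regime thereafter: 24/16 °C, 14 h light, 65% humidity. Assessment after 13 days on a 0–100 damage scale.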

corn (Zea mays) [8] = assay: Test G Post-Emergence Protocol; conditions: Zea mays, post-emergence, 312 h, read-out: Corn damage rating; for plant injury at 15.625 g/ha: 15.625 g ai/ha, evaluated after 13 days (100=total damage to plant; 0=no damage to plant); for plant injury at 62.5 g/ha: 62.5 g ai/ha; for plant injury at 62.5 g/ha / plant injury at 250 g/ha: evaluated after 13 days, 100=total damage to plant, 0=no damage to plant; for plant injury at 250 g/ha: 250 g ai/ha
Method in brief: as §2

[9] = system: giant foxtail (Setaria faberi); assay: Test G Post-Emergence Protocol; conditions: Setaria faberi, post-emergence, 312 h, read-out: Foxtail, Giant damage rating; for pest or weed control at 15.625 g/ha: 15.625 g ai/ha, evaluated after 13 days (100=total damage to plant; 0=no damage to plant); for pest or weed control at 62.5 g/ha: 62.5 g ai/ha
Method in brief: as §2

[10] = system: ivy-leaved morning glory (Ipomoea hederacea); assay: Test G Post-Emergence Protocol; conditions: Ipomoea, post-emergence, 312 h, read-out: Morningglory, Ivy-leaved damage rating; for pest or weed control at 15.625 g/ha: 15.625 g ai/ha, evaluated after 13 days (100=total damage to plant; 0=no damage to plant); for pest or weed control at 62.5 g/ha: 62.5 g ai/ha; for pest or weed control at 62.5 g/ha / pest or weed control at 250 g/ha: evaluated after 13 days, 100=total damage to plant, 0=no damage to plant; for pest or weed control at 250 g/ha: 250 g ai/ha
Method in brief: as §2

[11] = system: redroot pigweed (Amaranthus retroflexus); assay: Test G Post-Emergence Protocol; conditions: Amaranthus retroflexus, post-emergence, 312 h, read-out: Pigweed, Redroot damage rating; for pest or weed control at 15.625 g/ha: 15.625 g ai/ha, evaluated after 13 days (100=total damage to plant; 0=no damage to plant); for pest or weed control at 62.5 g/ha: 62.5 g ai/ha; for pest or weed control at 62.5 g/ha / pest or weed control at 250 g/ha: evaluated after 13 days, 100=total damage to plant, 0=no damage to plant; for pest or weed control at 250 g/ha: 250 g ai/ha
Method in brief: as §2

[12] = system: velvetleaf (Abutilon theophrasti); assay: Test G Post-Emergence Protocol; conditions: Abutilon theophrasti, post-emergence, 312 h, read-out: Velvetleaf damage rating; for pest or weed control at 15.625 g/ha: 15.625 g ai/ha, evaluated after 13 days (100=total damage to plant; 0=no damage to plant); for pest or weed control at 62.5 g/ha: 62.5 g ai/ha; for pest or weed control at 62.5 g/ha / pest or weed control at 250 g/ha: evaluated after 13 days, 100=total damage to plant, 0=no damage to plant; for pest or weed control at 250 g/ha: 250 g ai/ha
Method in brief: as §2

[13] = evaluated after 13 days, 100=total damage to plant, 0=no damage to plant

Compound	pest or weed control at 15.625 g/ha [1]	pest or weed control at 62.5 g/ha [1]	pest or weed control at 250 g/ha [1]	plant injury at 15.625 g/ha (corn (Zea mays) [2])	plant injury at 62.5 g/ha (corn (Zea mays) [2])	plant injury at 250 g/ha (corn (Zea mays) [2])	pest or weed control at 15.625 g/ha [3]	pest or weed control at 62.5 g/ha [3]	pest or weed control at 250 g/ha [3]	pest or weed control at 15.625 g/ha [4]	pest or weed control at 62.5 g/ha [4]	pest or weed control at 250 g/ha [4]	pest or weed control at 15.625 g/ha [5]	pest or weed control at 62.5 g/ha [5]	pest or weed control at 250 g/ha [5]	pest or weed control at 15.625 g/ha [6]	pest or weed control at 62.5 g/ha [6]	pest or weed control at 250 g/ha [6]	pest or weed control at 15.625 g/ha [7]	pest or weed control at 62.5 g/ha [7]	other results
CN1CC(c2ccc(Cl)c([N+](=O)[O-])c2)C(C(=O)Nc2cccc(F)c2F)C1=O (centres unmarked) [Compound 1685]	30%	70%	80%	0%	0%	60%	40%	70%	90%	10%	20%	30%	0%	10%	60%	10%	10%	30%	30%	60%	pest or weed control at 250 g/ha [7]: 80%; plant injury at 15.625 g/ha (corn (Zea mays) [8]): 10%; plant injury at 62.5 g/ha (corn (Zea mays) [8]): 40%; plant injury at 250 g/ha (corn (Zea mays) [8]): 70%; pest or weed control at 15.625 g/ha [9]: 70%; pest or weed control at 62.5 g/ha [9, 13]: 70%; pest or weed control at 250 g/ha ([9]; 250 g ai/ha, evaluated after 13 days, 100=total damage to plant, 0=no damage to plant): 80%; pest or weed control at 15.625 g/ha [10]: 40%; pest or weed control at 62.5 g/ha [10]: 30%; pest or weed control at 250 g/ha [10]: 70%; pest or weed control at 15.625 g/ha [11]: 40%; pest or weed control at 62.5 g/ha [11]: 50%; pest or weed control at 250 g/ha [11]: 70%; pest or weed control at 15.625 g/ha [12]: 10%; pest or weed control at 62.5 g/ha [12]: 30%; pest or weed control at 250 g/ha [12]: 60%
Cc1cc(C#N)cc(C2CN(C)C(=O)C2C(=O)Nc2cccc(F)c2F)c1 (centres unmarked) [Compound 1691]	20%	70%	80%	0%	20%	80%	60%	90%	90%	0%	20%	50%	0%	20%	30%	0%	40%	60%	30%	70%	pest or weed control at 250 g/ha [7]: 70%; plant injury at 15.625 g/ha (corn (Zea mays) [8]): 0%; plant injury at 62.5 g/ha (corn (Zea mays) [8]): 0%; plant injury at 250 g/ha (corn (Zea mays) [8]): 70%; pest or weed control at 15.625 g/ha [9]: 60%; pest or weed control at 62.5 g/ha [9, 13]: 80%; pest or weed control at 15.625 g/ha [10]: 0%; pest or weed control at 62.5 g/ha [10]: 60%; pest or weed control at 250 g/ha [10]: 30%; pest or weed control at 15.625 g/ha [11]: 0%; pest or weed control at 62.5 g/ha [11]: 0%; pest or weed control at 250 g/ha [11]: 0%; pest or weed control at 15.625 g/ha [12]: 0%; pest or weed control at 62.5 g/ha [12]: 10%; pest or weed control at 250 g/ha [12]: 20%
